# In paper PMC12506092, “The MarR family transcription factor SlyA senses iron and respiratory status in enteric bacteria” (mBio, 2025):
# Key:
# SlyA [1] = molecular target: T1, SlyA (Salmonella enterica, UniProt P40676); assay: ITC with purified SlyA at […]°C; supported by 1H, […]-HSQC NMR; type: binding
# SlyA [2] = molecular target: T1, SlyA; assay: ITC with purified SlyA; supported by NMR; type: binding
# T1 sequence (P40676 whole entry): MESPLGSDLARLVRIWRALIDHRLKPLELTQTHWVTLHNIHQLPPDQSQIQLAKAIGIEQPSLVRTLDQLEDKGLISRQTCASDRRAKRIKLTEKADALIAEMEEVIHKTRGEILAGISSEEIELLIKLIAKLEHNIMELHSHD
Compound,Kd (SlyA [1]) [µM],Kd (SlyA [2]) [µM]
"O=C(O)c1cccc(O)c1O [2,3-dihydroxybenzoate]",~57,–
O=C(O)c1ccc(O)cc1 [4-hydroxybenzoate],~100,–
O=C(O)c1ccccc1O [salicylate],–,36
